Measurements taken from patent US20100298141A1, “SUBSTITUTED PYRIDINE N-OXIDE HERBICIDES” (E. I. DU PONT DE NEMOURS AND COMPANY, priority 2007, published 2010).

Experiments:
velvetleaf = experiment: Test C pre-/postemergence test; format: in vivo, Abutilon theophrasti
In short: (§1)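 Test chemicals were formulated with surfactant in a non-phytotoxic solvent and sprayed both on freshly planted seeds (preemergence) and on 1- to 4-leaf plants of 2–18 cm (postemergence). Flooded-paddy pots received compound directly into 3 cm of standing water, maintained for the test.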

morningglory = experiment: Test A pre-/postemergence greenhouse test; format: in vivo, Ipomoea spp.; conditions: for Morningglory plant response rating: 0 to 100 scale; for Plant response rating, Morningglory: 0 to 100 scale where 0 is no effect and 100 is complete control
In short: (§2)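 Test compounds in non-phytotoxic solvent with surfactant were applied as a preemergence soil spray to seeded loam/sand pots and, concurrently, postemergence to plants at 2–10 cm, one- to two-leaf stage. About ten days in greenhouse, then injury visually rated against untreated controls.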

cocklebur = experiment: Test C pre-/postemergence test; format: in vivo, Xanthium strumarium; conditions: for Plant response rating (0 to 100), Cocklebur: 250 g ai/ha
In short: as §1

blackgrass = experiment: Test C pre-/postemergence test; format: in vivo, Alopecurus myosuroides; conditions: for Plant response rating (0 to 100), Blackgrass: 250 g ai/ha
In short: as §1

redroot pigweed = experiment: Test A pre-/postemergence greenhouse test; format: in vivo, Amaranthus retroflexus; conditions: for Pigweed plant response rating: 0 to 100 scale; for Plant response rating, Pigweed: 0 to 100 scale where 0 is no effect and 100 is complete control
In short: as §2

eastern black nightshade = experiment: Test C pre-/postemergence test; format: in vivo, Solanum ptycanthum
In short: as §1

kochia = experiment: Test C pre-/postemergence test; format: in vivo, Kochia scoparia
In short: as §1

wild oat = experiment: Test C pre-/postemergence test; format: in vivo, Avena fatua
In short: as §1

giant foxtail [1] = experiment: Test C pre-/postemergence test; format: in vivo, Setaria faberii; conditions: for Plant response rating (0 to 100), Foxtail, Giant: 250 g ai/ha
In short: as §1

woolly cupgrass = experiment: Test C pre-/postemergence test; format: in vivo, Eriochloa villosa; conditions: for Plant response rating (0 to 100), Cupgrass, Woolly: 250 g ai/ha
In short: as §1

common ragweed = experiment: Test C pre-/postemergence test; format: in vivo, Ambrosia elation
In short: as §1

lambsquarters = experiment: Test C pre-/postemergence test; format: in vivo, Chenopodium album
In short: as §1

Surinam grass = experiment: Test C pre-/postemergence test; format: in vivo, Brachiaria decumbens
In short: as §1

downy brome = experiment: Test C pre-/postemergence test; format: in vivo, Bromus tectorum; conditions: for Plant response rating (0 to 100), Bromegrass, Downy: 250 g ai/ha
In short: as §1

catchweed bedstraw = experiment: Test C pre-/postemergence test; format: in vivo, Galium aparine; conditions: for Plant response rating (0 to 100), Galium: 250 g ai/ha
In short: as §1

[2] = tested on: common (oilseed) sunflower; experiment: Test C pre-/postemergence test; format: in vivo, Helianthus annuus
In short: as §1

giant foxtail [3] = experiment: Test A pre-/postemergence greenhouse test; format: in vivo, Setaria faberi; conditions: for Foxtail, Giant plant response rating: 0 to 100 scale; for Plant response rating, Foxtail, Giant: 0 to 100 scale where 0 is no effect and 100 is complete control
In short: as §2

wheat [4] = experiment: Test A pre-/postemergence greenhouse test; format: in vivo, Triticum aestivum; conditions: for Wheat plant response rating: 0 to 100 scale; for Plant response rating, Wheat: 0 to 100 scale where 0 is no effect and 100 is complete control
In short: as §2

wheat [5] = experiment: Test C pre-/postemergence test; format: in vivo, Triticum aestivum
In short: as §1

[6] = 62 g ai/ha, Preemergence, scale 0 to 100
[7] = Preemergence, 31 g ai/ha, scale 0 to 100 (0 no effect, 100 complete control)
[8] = Postemergence, 125 g ai/ha, 0 is no effect, 100 is complete control
[9] = Postemergence, 500 g ai/ha, 0 is no effect, 100 is complete control
[10] = Preemergence, 125 g ai/ha, 0 no effect, 100 complete control
[11] = preemergence, 125 g ai/ha, scale 0 (no effect) to 100 (complete control)
[12] = 31 g ai/ha, Preemergence, scale 0 to 100
[13] = 62 g ai/ha, preemergence, scale 0 (no effect) to 100 (complete control)

## Cc1cc[n+]([O-])c(S(=O)(=O)Cc2c(C(F)(F)F)nn(C)c2OCC(F)(F)F)c1 [Compound 31]
velvetleaf; [6]
  Velvetleaf plant response rating: 100
velvetleaf; [7]
  Plant response rating, Velvetleaf: 55
morningglory; [8]
  Morningglory plant response rating: 60
morningglory; [9]
  Morningglory plant response rating: 80
morningglory; [10]
  Morningglory plant response rating: 90
morningglory; Preemergence, 500 g ai/ha
  Plant response rating, Morningglory: 100
cocklebur; [6]
  Cocklebur plant response rating: 0
cocklebur; [7]
  Plant response rating, Cocklebur: 0
cocklebur; Preemergence
  Plant response rating (0 to 100), Cocklebur: 50
cocklebur; [11]
  Cocklebur plant response rating: 40
blackgrass; [6]
  Blackgrass plant response rating: 80
blackgrass; [7]
  Plant response rating, Blackgrass: 60
blackgrass; Preemergence
  Plant response rating (0 to 100), Blackgrass: 100
blackgrass; [11]
  Blackgrass plant response rating: 100
Redroot pigweed; [8]
  Pigweed plant response rating: 80
Redroot pigweed; [9]
  Pigweed plant response rating: 80
Redroot pigweed; [10]
  Pigweed plant response rating: 100
Redroot pigweed; Preemergence, 500 g ai/ha
  Plant response rating, Pigweed: 100
Eastern black nightshade; [6]
  Nightshade plant response rating: 95
Eastern black nightshade; [7]
  Plant response rating, Nightshade: 95
kochia; [6]
  Kochia plant response rating: 100
kochia; [7]
  Plant response rating, Kochia: 100
Wild oat; [6]
  Oat, Wild plant response rating: 60
Wild oat; [7]
  Plant response rating, Oat, Wild: 5
Giant foxtail [1]; [6]
  Foxtail, Giant plant response rating: 100
Giant foxtail [1]; [7]
  Plant response rating, Foxtail, Giant: 100
Giant foxtail [1]; Preemergence
  Plant response rating (0 to 100), Foxtail, Giant: 100
Woolly cupgrass; [6]
  Cupgrass, Woolly plant response rating: 100
Woolly cupgrass; [7]
  Plant response rating, Cupgrass, Woolly: 95
Woolly cupgrass; Preemergence
  Plant response rating (0 to 100), Cupgrass, Woolly: 100
Common ragweed; [6]
  Ragweed plant response rating: 10
Common ragweed; [7]
  Plant response rating, Ragweed: 0
lambsquarters; [6]
  Lambsquarters plant response rating: 95
lambsquarters; [7]
  Plant response rating, Lambsquarters: 80
Surinam grass; [6]
  Surinam Grass plant response rating: 100
Surinam grass; [7]
  Plant response rating, Surinam Grass: 85
Downy brome; [6]
  Bromegrass, Downy plant response rating: 50
Downy brome; [7]
  Plant response rating, Bromegrass, Downy: 0
Downy brome; Preemergence
  Plant response rating (0 to 100), Bromegrass, Downy: 80
Downy brome; [11]
  Bromegrass, Downy plant response rating: 70
Catchweed bedstraw; [6]
  Galium plant response rating: 100
Catchweed bedstraw; [7]
  Plant response rating, Galium: 100
Catchweed bedstraw; Preemergence
  Plant response rating (0 to 100), Galium: 100
[2]; [6]
  Sunflower plant response rating: 20
[2]; [7]
  Plant response rating, Sunflower: 20
Giant foxtail [3]; [8]
  Foxtail, Giant plant response rating: 80
Giant foxtail [3]; [9]
  Foxtail, Giant plant response rating: 90
Giant foxtail [3]; [10]
  Foxtail, Giant plant response rating: 100
Giant foxtail [3]; Preemergence, 500 g ai/ha
  Plant response rating, Foxtail, Giant: 100
Wheat [4]; [8]
  Wheat plant response rating: 50
Wheat [4]; [9]
  Wheat plant response rating: 60
Wheat [4]; [10]
  Wheat plant response rating: 60
Wheat [4]; Preemergence, 500 g ai/ha
  Plant response rating, Wheat: 80
Wheat [5]; [6]
  Wheat plant response rating: 30
Wheat [5]; [7]
  Plant response rating, Wheat: 0

## Cn1nc(C(F)(F)F)c(CS(=O)(=O)c2cccc[n+]2[O-])c1Cl [Compound 9]
velvetleaf; Preemergence, 250 g ai/ha
  Plant response rating (0 to 100), Velvetleaf: 40
velvetleaf; [11]
  Velvetleaf plant response rating: 0
morningglory; [8]
  Morningglory plant response rating: 20
morningglory; [9]
  Morningglory plant response rating: 70
morningglory; [10]
  Morningglory plant response rating: 40
morningglory; Preemergence, 500 g ai/ha
  Plant response rating, Morningglory: 70
cocklebur; [12]
  Cocklebur plant response rating: 0
cocklebur; Preemergence
  Plant response rating (0 to 100), Cocklebur: 0
cocklebur; [11]
  Cocklebur plant response rating: 0
blackgrass; [12]
  Blackgrass plant response rating: 0
blackgrass; [13]
  Blackgrass plant response rating: 50
blackgrass; Preemergence
  Plant response rating (0 to 100), Blackgrass: 95
blackgrass; [11]
  Blackgrass plant response rating: 50
Redroot pigweed; [8]
  Pigweed plant response rating: 10
Redroot pigweed; [9]
  Pigweed plant response rating: 60
Redroot pigweed; [10]
  Pigweed plant response rating: 100
Redroot pigweed; Preemergence, 500 g ai/ha
  Plant response rating, Pigweed: 100
Eastern black nightshade; [12]
  Nightshade plant response rating: 80
Eastern black nightshade; [11]
  Nightshade plant response rating: 100
kochia; [12]
  Kochia plant response rating: 0
kochia; Preemergence, 250 g ai/ha
  Plant response rating (0 to 100), Kochia: 100
kochia; [11]
  Kochia plant response rating: 100
Wild oat; [12]
  Oat, Wild plant response rating: 0
Wild oat; [13]
  Oat, Wild plant response rating: 0
Wild oat; Preemergence, 250 g ai/ha
  Plant response rating (0 to 100), Oat, Wild: 55
Wild oat; [11]
  Oat, Wild plant response rating: 40
Giant foxtail [1]; [12]
  Foxtail, Giant plant response rating: 85
Giant foxtail [1]; Preemergence
  Plant response rating (0 to 100), Foxtail, Giant: 100
Giant foxtail [1]; [11]
  Foxtail, Giant plant response rating: 100
Woolly cupgrass; [12]
  Cupgrass, Woolly plant response rating: 0
Woolly cupgrass; Preemergence
  Plant response rating (0 to 100), Cupgrass, Woolly: 100
Woolly cupgrass; [11]
  Cupgrass, Woolly plant response rating: 100
Common ragweed; [12]
  Ragweed plant response rating: 45
Common ragweed; Preemergence, 250 g ai/ha
  Plant response rating (0 to 100), Ragweed: 100
Common ragweed; [11]
  Ragweed plant response rating: 90
lambsquarters; [12]
  Lambsquarters plant response rating: 0
lambsquarters; Preemergence, 250 g ai/ha
  Plant response rating (0 to 100), Lambsquarters: 100
lambsquarters; [11]
  Lambsquarters plant response rating: 80
Surinam grass; Preemergence, 250 g ai/ha
  Plant response rating (0 to 100), Surinam Grass: 100
Surinam grass; [11]
  Surinam Grass plant response rating: 85
Downy brome; [12]
  Bromegrass, Downy plant response rating: 0
Downy brome; [13]
  Bromegrass, Downy plant response rating: 0
Downy brome; Preemergence
  Plant response rating (0 to 100), Bromegrass, Downy: 20
Downy brome; [11]
  Bromegrass, Downy plant response rating: 20
Catchweed bedstraw; [12]
  Galium plant response rating: 0
Catchweed bedstraw; [13]
  Galium plant response rating: 100
Catchweed bedstraw; Preemergence
  Plant response rating (0 to 100), Galium: 100
Catchweed bedstraw; [11]
  Galium plant response rating: 100
[2]; Preemergence, 250 g ai/ha
  Plant response rating (0 to 100), Sunflower: 70
[2]; [11]
  Sunflower plant response rating: 5
Giant foxtail [3]; [8]
  Foxtail, Giant plant response rating: 90
Giant foxtail [3]; [9]
  Foxtail, Giant plant response rating: 90
Giant foxtail [3]; [10]
  Foxtail, Giant plant response rating: 100
Giant foxtail [3]; Preemergence, 500 g ai/ha
  Plant response rating, Foxtail, Giant: 100
Wheat [4]; [8]
  Wheat plant response rating: 40
Wheat [4]; [9]
  Wheat plant response rating: 60
Wheat [4]; [10]
  Wheat plant response rating: 50
Wheat [4]; Preemergence, 500 g ai/ha
  Plant response rating, Wheat: 70
Wheat [5]; [13]
  Wheat plant response rating: 30
Wheat [5]; Preemergence, 250 g ai/ha
  Plant response rating (0 to 100), Wheat: 70
Wheat [5]; [11]
  Wheat plant response rating: 45
